From patent US20040033517A1, “Compositions and methods relating to endothelial cell signaling using the protease activated receptor (PAR1)” (priority 2002, published 2004)
Where two headings read alike, the source gives them in different places. Blank lines part the entries; values can stand above or below the substance they belong to. Ends that are not written are not given here.

How the values were obtained:
primary HUVEC = experiment: TaqMan real-time RT-PCR of gene induction in primary HUVEC; type: cell-based, human; conditions: primary endothelial cells, quantitative PCR, FIG. 3A
Method: TaqMan Real Time PCR. For TaqMan (Applied Biosystems) real-time RT-PCR 4 μg total cellular RNA from stimulated primary HUVEC was reverse transcribed followed by RNAse treatment using the Superscript Kit (Invitrogen). TaqMan probes were custom designed for genes of interests. All samples were normalized with human GAPDH probes and primers obtained from Applied Biosystems.

[1] = test system: human umbilical vein endothelial cells HUVEC-C; type: cell-based
Excerpt: Microarray Analysis. […] Total RNA was isolated followed by reverse transcription. Purified double stranded cDNA was in vitro transcribed in the presence of biotinylated dUTP and dCTP, fragmented cRNA was hybridized to the HG-U95Av2 array (Affymetrix, Santa Clara, Calif.), followed by staining with streptavidin-phycoerythrin. Arrays were scanned and analyzed using GeneChip3.1 software. […] An average fold-induction for the three independent experiments was obtained by calculating the means of the logarithm of the individual fold-increases for each agonist.

[2] = systemically and locally induced sepsis models; Zisman 1997, Bone-Larson 2000; cited from earlier work
[3] = HUVEC-C, 90 min, genes represented in FIG. 2 A-C
[4] = HUVEC-C, 90 min, higher variability, PAR1 enhanced (<1.3 fold with PAR2 agonist)
[5] = HUVEC-C, 90 min, higher variability, PAR2 enhanced (<1.3 fold with PAR1 agonist)
[6] = HUVEC-C, 90 min, higher variability, genes not induced by APC (<1.3 fold with APC)

Average fold induction, AKAP12 U81607 A-KINASE ANCHOR PROTEIN 12, GRAVIN [1]: 1.39 fold
Average fold induction, BCL2A1 U27467 BCL2 RELATED PROTEIN A1, BFL-1 [1]: 2.04 fold
Average fold induction, DUSP1 X68277 DUAL-SPECIFICITY PHOSPHATASE 1 [1]: 2.05 fold
Average fold induction, DUSP5 U15932 DUAL-SPECIFICITY PHOSPHATASE 5 [1]: 2.93 fold
Average fold induction, IER3 S81914 IMMEDIATE-EARLY RESPONSE 3 [1]: 1.30 fold
Average fold induction, NAB1 AF045451 NGFIA-BINDING PROTEIN [1]: 1.49 fold
Average fold induction, NFKBIA M69043 NUCLEAR FACTOR OF KAPPA LIGHT CHAIN GENE ENHANCER IN B CELLS INHIBITOR, ALPHA [1]: 1.38 fold
Average fold induction, ZFP36 M92843 ZINC FINGER PROTEIN 36, TRISTETRAPROLIN (TTP) [1]: 1.98 fold
Substance: TFLLRNPNDK [PAR1]
MCP-1 induction, time course (primary HUVEC): similarly induced
Average fold induction, BIRC3 U45878 HUMAN INHIBITOR OF APOPTOSIS PROTEIN (IAP) 1 [1]: 2.39 fold
Average fold induction, GADD45B AF078077 GROWTH ARREST- AND DNA DAMAGE-INDUCIBLE GENE GADD45, BETA [1]: 1.26 fold
Average fold induction, TNFAIP3 M59465 TUMOR NECROSIS FACTOR-ALPHA-INDUCED PROTEIN 3, A20 [1]: 1.39 fold
Average Induction, A1288757 qm11h01.x1 Homo sapiens cDNA [1, 3]: 1.8 fold
Average Induction, A1670788 tz10c02.x1 Homo sapiens cDNA [1, 3]: 1.5 fold
Average Induction, A1985272 ws06b05.x1 Homo sapiens cDNA [1, 3]: 1.3 fold
Average Induction, A8022718 Homo sapiens m.RNA for DEPP (decidual protein induced by progesterone) [1, 3]: 1.3 fold
Average Induction, AB004066 Homo sapiens mRNA for DEC1 [1, 3]: 1.5 fold
Average Induction, AB014569 Homo sapiens mRNA for K1AA0669 protein [1, 3]: 1.3 fold
Average Induction, AF017786 Homo sapiens phosphatidic acid phosphohydrolase homolog (Dri42) [1, 3]: 1.6 fold
Average Induction, AF022375 Homo sapiens vascular endothelial growth factor mRNA [1, 3]: 1.5 fold
Average Induction, AF039843 Homo sapiens Sprouty 2 (SPRY2) mRNA [1, 3]: 1.6 fold
Average Induction, AF045451 Homo sapiens transcriptional regulatory protein p54 [1, 3]: 1.5 fold
Average Induction, AF050110 Homo sapiens TGFb inducible early protein and early growth response protein alpha genes [1, 3]: 1.7 fold
Average Induction, AF054182 Homo sapiens mitochondrial processing peptidase beta-subunit mRNA [1, 3]: 1.8 fold
Average Induction, AF068197 Homo sapiens BCE-1 mRNA [1, 3]: 1.5 fold
Average Induction, AF078077 Homo sapiens growth arrest and DNA-damage-inducible protein GADD45beta [1, 3]: 1.3 fold
Average Induction, AJ005821 Homo sapiens mRNA for X-like 1 protein [1, 3]: 2.4 fold
Average Induction, AL023584 Human DNA sequence from clone 67K17 on chromosome 6q24.1-24.3. [1, 3]: 1.8 fold
Average Induction, AL031432 Human DNA sequence from clone 465N24 on chromosome 1p35.1-36.13. [1, 3]: 1.9 fold
Average Induction, AL050078 Homo sapiens mRNA; cDNA DKFZp566G0746 [1, 3]: 1.6 fold
Average Induction, AL096858 Novel human gene mapping to chomosome 1 [1, 3]: 1.3 fold
Average Induction, Cluster Incl M22489 Human bone morphogenetic protein 2A (BMP-2A) [1, 3]: 2.4 fold
Average Induction, Cluster Incl U12767 Human mitogen induced nuclear orphan receptor (MINOR) [1, 3]: 2.4 fold
Average Induction, D15050 Human mRNA for transcription factor AREB6 [1, 3]: 2.1 fold
Average Induction, D50917 Human mRNA for KIAA0127 gene [1, 3]: 1.4 fold
Average Induction, D78579 Homo sapiens mRNA for neuron derived orphan receptor [1, 3]: 2.6 fold
Average Induction, D86181 Homo sapiens DNA for galactocerebrosidase [1, 3]: 1.9 fold
Average Induction, Guanine Nucleotide Exchange Factor 2 [1, 3]: 1.4 fold
Average Induction, J02931 Human placental tissue factor (two forms) mRNA [1, 3]: 3.0 fold
Average Induction, J04076 Human early growth response 2 protein (EGR2) mRNA [1, 3]: 2.0 fold
Average Induction, J04111 Human c-jun proto oncogene (JUN) [1, 3]: 1.7 fold
Average Induction, L05072 Homo sapiens interferon regulatory factor 1 gene [1, 3]: 1.9 fold
Average Induction, L19871 Human activating transcription factor 3 (ATF3) [1, 3]: 2.5 fold
Average Induction, L43821 Homo sapiens enhancer of filamentation (HEF1) mRNA [1, 3]: 1.4 fold
Average Induction, M22489/FEATURE Human bone morphogenetic protein 2A (BMP-2A) [1, 3]: 2.3 fold
Average Induction, M26683 Human interferon gamma treatment inducible mRNA [1, 3]: 1.6 fold
Average Induction, M28211 Homo sapiens GTP-binding protein (RAB4) mRNA [1, 3]: 2.0 fold
Average Induction, M28225 Human JE gene encoding a monocyte secretory protein [= MCP-1] [1, 3]: 2.1 fold
Average Induction, M29039 Human transactivator (jun-B) gene [1, 3]: 2.8 fold
Average Induction, M30474 Human kidney gamma-glutamyl transpeptidase type II mRNA [1, 3]: 2.7 fold
Average Induction, M31516 Human decay-accelerating factor mRNA [1, 3]: 1.7 fold
Average Induction, M36820 Human cytokine (GRO-beta) mRNA [1, 3]: 2.1 fold
Average Induction, M59465 Human tumor necrosis factor alpha inducible protein A20 mRNA [1, 3]: 1.4 fold
Average Induction, M60278 Human heparin-binding EGF-like growth factor mRNA [1, 3]: 3.6 fold
Average Induction, M60721 Human homeobox gene [1, 3]: 2.8 fold
Average Induction, M69043 Homo sapiens MAD-3 mRNA encoding 1kB-like activity [1, 3]: 1.4 fold
Average Induction, M92843 H.sapiens zinc finger transcriptional regulator mRNA [1, 3]: 2.0 fold
Average Induction, S81439 EGR alpha=early growth response gene alpha [1, 3]: 1.8 fold
Average Induction, S81914 IEX-1=radiation-inducible immediate-early gene [1, 3]: 1.3 fold
Average Induction, U04636 Human cyclooxygenase-2 (hCox-2) gene [1, 3]: 1.3 fold
Average Induction, U07802 Human Tis1 1d gene [1, 3]: 1.5 fold
Average Induction, U08015 Human NF-ATc mRNA [1, 3]: 1.4 fold
Average Induction, U12767/FEATURE Human mitogen induced nuclear orphan receptor (MINOR) [1, 3]: 4.9 fold
Average Induction, U15932 Human dual-specificity protein phosphatase [1, 3]: 2.9 fold
Average Induction, U25997 Homo sapiens stanniocalcin precursor (STC) mRNA [1, 3]: 1.6 fold
Average Induction, U43142 Human vascular endothelial growth factor related protein VRP [1, 3]: 1.4 fold
Average Induction, U59863 Human TRAF-interacting protein I-TRAF mRNA [1, 3]: 1.3 fold
Average Induction, U75697 Human transcription regulator RPD3-2B mRNA [1, 3]: 2.7 fold
Average Induction, U79259 Human clone 23945 mRNA [1, 3]: 1.5 fold
Average Induction, U81607 Homo sapiens gravin mRNA [1, 3]: 1.4 fold
Average Induction, W27545 32c4 Homo sapiens cDNA [1, 3]: 1.2 fold
Average Induction, X51345 Human jun-B mRNA for JUN-B protein [1, 3]: 1.8 fold
Average Induction, X63741 H.sapiens pilot mRNA [1, 3]: 1.9 fold
Average Induction, X68277 H.sapiens CL 100 mRNA for protein tyrosine phosphatase [1, 3]: 2.1 fold
Average Induction, X75918 H.sapiens mRNA for NOT [1, 3]: 2.3 fold
Average Induction, X89066 H.sapiens mRNA for TRPC1 protein [1, 3]: 2.6 fold
Average Induction, X94216 H.sapiens mRNA for VEGF-C protein [1, 3]: 1.4 fold
Average Induction, Y00630 Human mRNA for Arg-Serpin (plasminogen activator-inhibitor 2, PAI-2) [1, 3]: 2.2 fold
Average Induction, Z25821 H.sapiens gene for mitochondrial dodecenoyl-CoA delta-isomerase [1, 3]: 1.1 fold
Average Induction, Z48054 H.sapiens mRNA for peroxisomal targeting signal 1 (SKL type) receptor [1, 3]: 2.0 fold
Average Induction, L13740 Human TR3 orphan receptor mRNA ([1]; HUVEC-C, 90 min, genes represented in FIG. 2 A-C, first probe set): 4.8 fold
Average Induction, L13740 Human TR3 orphan receptor mRNA ([1]; HUVEC-C, 90 min, genes represented in FIG. 2 A-C, second probe set): 4.7 fold
Average Induction, A1186701 qe82d12.x1 Homo sapiens cDNA [1, 4]: 1.9 fold
Average Induction, A1953789 wx69d10.x1 Homo sapiens cDNA [1, 4]: 1.3 fold
Average Induction, AF024710 Homo sapiens vascular endothelial growth factor (VEGF) [1, 4]: 1.4 fold
Average Induction, AL035297 H.sapiens gene from PAC 747L4 [1, 4]: 1.7 fold
Average Induction, M22299 Human T-plastin polypeptide mRNA [1, 4]: 1.6 fold
Average Induction, U35735 Human RACH1 (RACH1) mRNA [1, 4]: 1.8 fold
Average Induction, U87460 Human putative endothelin receptor type B-like protein mRNA [1, 4]: 1.4 fold
Average Induction, A1038821 ox96d03.x1 Homo sapiens cDNA [1, 5]: 1.2 fold
Average Induction, AC004475 Homo sapiens chromosome 19, cosmid F23858 [1, 5]: 1.2 fold
Average Induction, AL049354 Homo sapiens mRNA; cDNA DKFZp566E183 [1, 5]: 1.1 fold
Average Induction, L38696 Homo sapiens autoantigen p542 mRNA [1, 5]: 1.0 fold
Average Induction, U27655 Human RGP3 mRNA [1, 5]: 1.2 fold
Average Induction, U53831 Homo sapiens interferon regulatory factor 7B [1, 5]: 1.1 fold
Average Induction, U58334 Human Bcl2, p53 binding protein Bbp/53BP2 (BBP/53BP2) mRNA [1, 5]: 1.1 fold
Average Induction, U65093 Human msg1-related gene 1 (mrg1) mRNA [1, 5]: 1.3 fold
Average Induction, W26851 17b12 Homo sapiens cDNA [1, 5]: 1.2 fold
Average Induction, Y13115 Homo sapiens mRNA for serine/threonine protein kinase SAK [1, 5]: 1.2 fold
Average Induction, Z25821 H.sapiens gene for mitochondrial dodecenoyl-CoA delta-isomerase [1, 5]: 1.1 fold
Average Induction, AB028069 Homo sapiens mRNA for activator of S phase Kinase [1, 6]: 2.0 fold
Average Induction, D38537 Human mRNA for protoporphyrinogen oxidase [1, 6]: 1.3 fold
Average Induction, M83667 Human NF-IL6-beta protein [1, 6]: 1.4 fold
Average Induction, U78082 Human RNA polymerase transcriptional regulation mediator (h-MED6) mRNA [1, 6]: 1.9 fold
Average Induction, U85267 Homo sapiens down syndrome candidate region 1 (DSCR1) gene [1, 6]: 1.6 fold
Induction of the MCP-1 transcript (microarray, text) ([1]; endothelial cells, 90 minutes): only induced by the PAR1 agonist

Substance: MCP-1: monocyte chemoattractant protein-1, chemokine administered in cited sepsis models
Effect of administration in sepsis models [2]: protective
